Our source for the IC50 values is patent publication US6972296B2, “Carboxylic acid derivatives that inhibit the binding of integrins to their receptors” (Encysive Pharmaceuticals Inc., priority 1999, dated 2005).

The term IC50 denotes the concentration at which inhibition is half-maximal.

Structures are written as SMILES.

One assay deals with T1, α4β1 integrin (Homo sapiens, UniProt P05556+P13612).
T1 construct: endogenous in cells; host or cells: Ramos cells
T1 sequence (P13612 34-1032): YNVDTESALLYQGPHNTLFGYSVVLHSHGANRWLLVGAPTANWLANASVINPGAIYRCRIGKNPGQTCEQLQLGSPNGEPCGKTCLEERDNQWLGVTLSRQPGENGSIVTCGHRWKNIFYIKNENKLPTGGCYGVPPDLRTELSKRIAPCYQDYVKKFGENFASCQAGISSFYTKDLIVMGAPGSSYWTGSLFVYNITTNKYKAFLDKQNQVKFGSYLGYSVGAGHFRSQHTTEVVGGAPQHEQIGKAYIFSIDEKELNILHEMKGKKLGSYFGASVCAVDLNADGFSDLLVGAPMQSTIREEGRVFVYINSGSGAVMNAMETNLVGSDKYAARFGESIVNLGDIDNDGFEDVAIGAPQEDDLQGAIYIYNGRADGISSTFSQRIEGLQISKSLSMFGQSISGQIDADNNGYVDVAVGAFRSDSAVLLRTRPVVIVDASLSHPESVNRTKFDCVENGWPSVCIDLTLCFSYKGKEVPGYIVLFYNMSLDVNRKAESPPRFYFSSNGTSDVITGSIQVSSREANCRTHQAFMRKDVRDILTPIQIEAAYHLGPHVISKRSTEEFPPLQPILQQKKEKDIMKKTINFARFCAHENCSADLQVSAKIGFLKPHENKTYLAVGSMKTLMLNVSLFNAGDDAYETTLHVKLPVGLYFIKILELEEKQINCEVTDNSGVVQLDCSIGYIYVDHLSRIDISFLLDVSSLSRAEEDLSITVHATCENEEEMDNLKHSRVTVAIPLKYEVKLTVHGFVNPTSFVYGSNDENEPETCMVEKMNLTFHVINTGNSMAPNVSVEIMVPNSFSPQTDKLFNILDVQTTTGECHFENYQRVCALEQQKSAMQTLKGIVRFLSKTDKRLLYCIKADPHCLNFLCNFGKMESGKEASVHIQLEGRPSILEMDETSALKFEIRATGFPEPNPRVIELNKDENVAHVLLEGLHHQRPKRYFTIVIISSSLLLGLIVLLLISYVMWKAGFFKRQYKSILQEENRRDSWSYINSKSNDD
T1 sequence (P05556 21-798): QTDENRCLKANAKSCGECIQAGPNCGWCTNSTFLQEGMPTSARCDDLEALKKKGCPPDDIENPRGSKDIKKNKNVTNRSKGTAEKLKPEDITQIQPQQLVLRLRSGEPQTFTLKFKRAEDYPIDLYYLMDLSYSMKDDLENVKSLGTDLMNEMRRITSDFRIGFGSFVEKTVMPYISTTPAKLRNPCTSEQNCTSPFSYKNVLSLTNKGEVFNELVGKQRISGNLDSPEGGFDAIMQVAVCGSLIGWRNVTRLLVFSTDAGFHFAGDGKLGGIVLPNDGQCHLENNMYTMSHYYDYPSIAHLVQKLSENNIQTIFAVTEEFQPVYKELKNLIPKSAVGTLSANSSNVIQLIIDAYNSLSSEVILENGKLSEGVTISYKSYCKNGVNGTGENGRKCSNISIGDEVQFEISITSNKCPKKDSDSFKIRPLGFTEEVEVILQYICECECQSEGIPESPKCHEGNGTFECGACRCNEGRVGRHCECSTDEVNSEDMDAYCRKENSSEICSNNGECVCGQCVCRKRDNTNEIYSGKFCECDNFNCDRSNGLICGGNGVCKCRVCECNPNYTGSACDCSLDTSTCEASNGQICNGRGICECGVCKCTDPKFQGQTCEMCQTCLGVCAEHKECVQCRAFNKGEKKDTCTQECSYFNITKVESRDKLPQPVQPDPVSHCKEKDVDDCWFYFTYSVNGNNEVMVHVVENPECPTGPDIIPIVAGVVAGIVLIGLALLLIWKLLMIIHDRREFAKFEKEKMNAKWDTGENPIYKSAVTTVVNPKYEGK
Put plainly: Adhesion of calcein-labeled Ramos cells to CS1 (fibronectin) peptide conjugated ovalbumin. The class given is cell-based. The following applies: Table 3; Ramos cell adhesion to CS1 conjugated ovalbumin, 30 minutes at 37° C. Put shortly: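 Calcein AM-labelled Ramos cells (2.5×10^5/well) with compound, up to 100 μM, added to plates coated with CS1 peptide–ovalbumin (0.5 μg/ml) and blocked with 3% BSA. Binding buffer TBS pH 7.5 with 1 mM each MgCl2, CaCl2, MnCl2; 30 min, 37 °C. After washes, adherent cells lysed and read fluorometrically; […].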
Turning to `CCCNc1ccn(Cc2ccccc2Cl)c(=O)c1NC(=O)N[C@@H](CC(=O)O)c1ccc(C)cc1` [(3S)-3-[({[1-[(2-chlorophenyl)methyl]-2-oxo-4-(propylamino)-1,2-dihydro-3-pyridinyl]amino}carbonyl)amino]-3-(4-methylphenyl)propanoic acid], the IC50 is 10 nM.
Still for that read-out and setting: next, `Cc1ccc([C@H](CC(=O)O)NC(=O)Nc2c(CC(C)C)nc(C)n(Cc3ccccc3)c2=O)cc1` [(3S)-3-[({[2-methyl-4-(2-methylpropyl)-6-oxo-1-(phenylmethyl)-1,6-dihydro-5-pyrimidinyl]amino}carbonyl)amino]-3-(4-methylphenyl)propanoic acid]: 10 nM; `Cc1ccc([C@H](CC(=O)O)NC(=O)Nc2c(C)ccn(Cc3ccccc3Br)c2=O)cc1` [(3S)-3-{[({1-[(2-bromophenyl)methyl]-4-methyl-2-oxo-1,2-dihydro-3-pyridinyl}amino)carbonyl]amino}-3-(4-methylphenyl)propanoic acid]: 10 nM; `Cc1ccc([C@H](CC(=O)O)NC(=O)Nc2c(O)ccn(Cc3c(F)cccc3Cl)c2=O)cc1` [(3S)-3-{[({1-[(2-chloro-6-fluorophenyl)methyl]-4-hydroxy-2-oxo-1,2-dihydro-3-pyridinyl}amino)carbonyl]amino}-3-(4-methylphenyl)propanoic acid]: 10 nM.

The assay is the same for the next values; noted with them: Table 4; Ramos cell adhesion to CS1 conjugated ovalbumin, 30 minutes at 37° C.
Regarding `Cc1ccc([C@H](CC(=O)O)NC(=O)Nc2cnc(C)n(Cc3ccccc3)c2=O)cc1` [(3S)-3-[({[2-methyl-6-oxo-1-(phenylmethyl)-1,6-dihydro-5-pyrimidinyl]amino}carbonyl)amino]-3-(4-methylphenyl)propanoic acid], the concentration for half-maximal inhibition (IC50) was 100 nM.
The same measure, in the same setting: next, `Cc1ccc([C@H](CC(=O)O)NC(=O)Nc2cc(Cl)cc(Cc3ccccc3)c2O)cc1` [(3S)-3-[({[5-chloro-2-hydroxy-3-(phenylmethyl)phenyl]amino}carbonyl)amino]-3-(4-methylphenyl)propanoic acid]: 8000 nM.

Staying with this assay, now noted: Table 5; Ramos cell adhesion to CS1 conjugated ovalbumin; dose required to give 50% inhibition.
With `Cc1ccc([C@H](CC(=O)O)NC(=O)Nc2c(O)c(C)cn(Cc3ccccc3Cl)c2=O)cc1` [(3S)-3-[({[1-(2-chlorobenzyl)-4-hydroxy-5-methyl-2-oxo-1,2-dihydropyridin-3-yl]amino}carbonyl)amino]-3-(4-methylphenyl)propanoic acid], the half-inhibitory concentration (IC50) is 5 nM.
On the same count and under the same terms, next, `CCc1cn(Cc2ccccc2Cl)c(=O)c(NC(=O)N[C@@H](CC(=O)O)c2ccc(C)cc2)c1O` [(3S)-3-[({[1-(2-chlorobenzyl)-5-ethyl-4-hydroxy-2-oxo-1,2-dihydropyridin-3-yl]amino}carbonyl)amino]-3-(4-methylphenyl)propanoic acid]: 10 nM.
Still for that read-out and setting: next, `Cc1ccc([C@H](CC(=O)O)NC(=O)Nc2c(O)ccn(Cc3ccccc3C#N)c2=O)cc1` [(3S)-3-[({[1-(2-cyanobenzyl)-4-hydroxy-2-oxo-1,2-dihydropyridin-3-yl]amino}carbonyl)amino]-3-(4-methylphenyl)propanoic acid]: 9 nM; `Cc1ccc([C@H](CC(=O)O)NC(=O)Nc2c(O)ccn(Cc3ccc(Cl)cc3)c2=O)cc1` [(3S)-3-[({[1-(4-chlorobenzyl)-4-hydroxy-2-oxo-1,2-dihydropyridin-3-yl]amino}carbonyl)amino]-3-(4-methylphenyl)propanoic acid]: 7 nM; `Cc1ccc([C@H](CC(=O)O)NC(=O)Nc2c(O)ccn(Cc3ccccn3)c2=O)cc1` [(3S)-3-[({[4-hydroxy-2-oxo-1-(pyridin-2-ylmethyl)-1,2-dihydropyridin-3-yl]amino}carbonyl)amino]-3-(4-methylphenyl)propanoic acid]: 45 nM.
For the molecule `Cc1ccc([C@H](CC(=O)O)NC(=O)Nc2c(NC(=O)NC(C)(C)C)ccn(Cc3ccccc3Cl)c2=O)cc1` [(3S)-3-[({[4-{[(tert-butylamino)carbonyl]amino}-1-(2-chlorobenzyl)-2-oxo-1,2-dihydropyridin-3-yl]amino}carbonyl)amino]-3-(4-methylphenyl)propanoic acid], the IC50 is 10 nM.
On to `Cc1ccc([C@H](CC(=O)O)NC(=O)Nc2c(NC(=O)C(C)(C)C)ccn(Cc3ccccc3Cl)c2=O)cc1` [(3S)-3-{[({1-(2-chlorobenzyl)-4-[(2,2-dimethylpropanoyl)amino]-2-oxo-1,2-dihydropyridin-3-yl}amino)carbonyl]amino}-3-(4-methylphenyl)propanoic acid], for which the IC50 was 10 nM.
In the case of `Cc1ccc([C@H](CC(=O)O)NC(=O)Nc2c(O)ccn(Cc3cc(S(C)(=O)=O)ccc3Cl)c2=O)cc1` [(3S)-3-{[({1-[2-chloro-5-(methylsulfonyl)benzyl]-4-hydroxy-2-oxo-1,2-dihydropyridin-3-yl}amino)carbonyl]amino}-3-(4-methylphenyl)propanoic acid], the IC50 was 3 nM.
For the molecule `Cc1ccc([C@H](CC(=O)O)NC(=O)Nc2c(O)ccn(Cc3cc(C(F)(F)F)ccc3Cl)c2=O)cc1` [(3S)-3-{[({1-[2-chloro-5-(trifluoromethyl)benzyl]-4-hydroxy-2-oxo-1,2-dihydropyridin-3-yl}amino)carbonyl]amino}-3-(4-methylphenyl)propanoic acid], the IC50 was 10 nM.

Still in this assay, the particulars now being: Table 6; Ramos cell adhesion to CS1 conjugated ovalbumin, 30 minutes at 37° C.
Regarding `Cc1ccc([C@H](CC(=O)O)NC(=O)Nc2c(O)c(Cl)cn(Cc3ccccc3Cl)c2=O)cc1` [(3S)-3-[({[5-chloro-1-(2-chlorobenzyl)-4-hydroxy-2-oxo-1,2-dihydropyridin-3-yl]amino}carbonyl)amino]-3-(4-methylphenyl)propanoic acid], the IC50 is 6 nM.

Staying with this assay, now noted: Table 7; Ramos cell adhesion to CS1 conjugated ovalbumin; dose required to give 50% inhibition.
Turning to `CCN(CC)c1cccc([C@H](CC(=O)O)NC(=O)Nc2c(O)c(C)cn(Cc3ccccc3Cl)c2=O)c1` [(3S)-3-[({[1-(2-chlorobenzyl)-4-hydroxy-5-methyl-2-oxo-1,2-dihydropyridin-3-yl]amino}carbonyl)amino]-3-[3-(diethylamino)phenyl]propanoic acid], the concentration for half-maximal inhibition (IC50) is 2 nM.
Same read-out and setting: next, `CCOc1cccc([C@H](CC(=O)O)NC(=O)Nc2c(O)c(C)nn(Cc3c(Cl)cccc3OCC)c2=O)c1` [(3S)-3-[({[2-(2-chloro-6-ethoxybenzyl)-5-hydroxy-6-methyl-3-oxo-2,3-dihydropyridazin-4-yl]amino}carbonyl)amino]-3-(3-ethoxyphenyl)propanoic acid]: 3 nM; `Cc1cccc(Cl)c1Cn1c2c(c(O)c(NC(=O)N[C@@H](CC(=O)O)c3ccc4c(ccn4C)c3)c1=O)CCC2` [(3S)-3-{[({1-[(2-chloro-6-methylphenyl)methyl]-4-hydroxy-2-oxo-2,5,6,7-tetrahydro-1H-cyclopenta[b]pyridin-3-yl}amino)carbonyl]amino}-3-(1-methyl-1H-indol-5-yl)propanoic acid]: 3 nM.
The same measure, in the same setting: next, `Cc1cccc(Cl)c1Cn1c2c(c(O)c(NC(=O)N[C@@H](CC(=O)O)c3ccc4[nH]ccc4c3)c1=O)CCC2` [(3S)-3-{[({1-[(2-chloro-6-methylphenyl)methyl]-4-hydroxy-2-oxo-2,5,6,7-tetrahydro-1H-cyclopenta[b]pyridin-3-yl}amino)carbonyl]amino}-3-(1H-indol-5-yl)propanoic acid]: 2 nM; `Cc1cccc(Cl)c1Cn1c2c(c(O)c(NC(=O)N[C@@H](CC(=O)O)c3cccc(NS(C)(=O)=O)c3)c1=O)CCC2` [(3S)-3-{[({1-[(2-chloro-6-methylphenyl)methyl]-4-hydroxy-2-oxo-2,5,6,7-tetrahydro-1H-cyclopenta[b]pyridin-3-yl}amino)carbonyl]amino}-3-{3-[(methylsulfonyl)amino]phenyl}propanoic acid]: 3 nM.
